Measurements reported in patent US10550105B2 (Ribon Therapeutics Inc., priority 2018, dated 2020).

The compounds below were run against PARP7 (Homo sapiens (Human), UniProt Q7Z3E1) (assay: Enzymatic assay for inhibition of PARP7: TR-FRET displacement of biotinylated Probe A from the TIPARP active site). Settings: Table A-1.
Assay type: binding
Outline: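 Compounds were tested as dose-response series, and reactions were incubated a further 30 min at 25° C. TR-FRET was read at 320 nm excitation with 615 and 665 nm emission after a 90 μs delay. The 665/615 ratio gave the TIPARP–Probe A complex, and % inhibition was fitted against concentration.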

Sequence of PARP7 (Q7Z3E1 whole entry): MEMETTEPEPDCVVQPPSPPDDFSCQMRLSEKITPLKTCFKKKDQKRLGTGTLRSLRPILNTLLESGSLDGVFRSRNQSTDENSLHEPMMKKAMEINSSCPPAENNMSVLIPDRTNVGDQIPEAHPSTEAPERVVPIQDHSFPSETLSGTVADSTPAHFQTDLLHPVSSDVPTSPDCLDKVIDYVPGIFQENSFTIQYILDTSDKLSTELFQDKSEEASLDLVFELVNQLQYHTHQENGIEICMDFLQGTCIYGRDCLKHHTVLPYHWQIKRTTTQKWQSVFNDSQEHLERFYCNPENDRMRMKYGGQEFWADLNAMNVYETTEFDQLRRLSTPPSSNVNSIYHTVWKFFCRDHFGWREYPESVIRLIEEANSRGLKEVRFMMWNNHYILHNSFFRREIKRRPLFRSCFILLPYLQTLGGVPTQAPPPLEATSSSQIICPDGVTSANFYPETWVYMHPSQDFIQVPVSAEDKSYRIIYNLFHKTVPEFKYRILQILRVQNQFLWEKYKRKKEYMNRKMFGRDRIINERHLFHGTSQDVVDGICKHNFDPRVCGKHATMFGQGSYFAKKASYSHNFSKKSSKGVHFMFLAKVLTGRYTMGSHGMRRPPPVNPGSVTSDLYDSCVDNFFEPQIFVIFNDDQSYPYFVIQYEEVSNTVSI

| Compound | IC50 [nM] |
| --- | --- |
| O=C(C[C@H]1CC[C@H](CNc2cn[nH]c(=O)c2C(F)(F)F)O1)N1CCN(c2ncc(C(F)(F)F)cn2)CC1 (single isomer, unassigned) [Example 568 Isomer B] | < 100 |
| N#Cc1ccc(N2CCN(C(=O)C[C@H]3CC[C@@H](COc4cn[nH]c(=O)c4C(F)(F)F)O3)CC2)nc1 [Example 580 Isomer C, 6-(4-[2-[(2R,5S)-5-([[6-oxo-5-(trifluoromethyl)-1,6-dihydropyridazin-4-yl]oxy]methyl)oxolan-2-yl]acetyl]piperazin-1-yl)pyridine-3-carbonitrile] | < 100 |
| N#Cc1ccc(N2CCN(C(=O)CCO[C@@H]3COC[C@@H]3Oc3cn[nH]c(=O)c3C(F)(F)F)CC2)nc1 [Example 531, 6-[4-(3-[[(3R,4S)-4-[[6-Oxo-5-(trifluoromethyl)-1,6-dihydropyridazin-4-yl]oxy]oxolan-3-yl]oxy]propanoyl)piperazin-1-yl]pyridine-3-carbonitrile] | < 100 |
| COC[C@@H](COCCC(=O)N1CCN(c2cnc(Cl)cn2)CC1)Nc1cn[nH]c(=O)c1Br [Example 693, (S)-4-Bromo-5-((1-(3-(4-(5-chloropyrazin-2-yl)piperazin-1-yl)-3-oxopropoxy)-3-methoxypropan-2-yl)amino)pyridazin-3(2H)-one] | < 100 |
| N#Cc1ccc(N2CCN(C(=O)N3CC[C@H](OC[C@@H]4CCCN4c4cn[nH]c(=O)c4C(F)(F)F)C3)CC2)nc1 [Example 129B, 6-[4-[(3S)-3-[[(2S)-1-[6-oxo-5-(trifluoromethyl)-1,6-dihydropyridazin-4-yl]pyrrolidin-2-yl]methoxy]pyrrolidine-1-carbonyl]piperazin-1-yl]pyridine-3-carbonitrile] | < 100 |
| CO[C@H](C)[C@@H](COCCC(=O)N1CCN(c2ncc(C(F)(F)F)cn2)CC1)Nc1cn[nH]c(=O)c1C(F)(F)F [Example 699, 5-(((2R,3R)-3-Methoxy-1-(3-oxo-3-(4-(5-(trifluoromethyl)pyrimidin-2-yl)piperazin-1-yl)propoxy)butan-2-yl)amino)-4-(trifluoromethyl)pyridazin-3(2H)-one] | < 100 |
| O=C(C[C@@H]1CC[C@@H](CNc2cn[nH]c(=O)c2C(F)(F)F)O1)N1CCN(c2ncc(C(F)(F)F)cn2)CC1 (single isomer, unassigned) [Example 568 Isomer A] | < 100 |
| O=C(CCOC[C@H](Nc1cn[nH]c(=O)c1C(F)(F)F)[C@@H]1CCOC1)N1CCN(c2ncc(C(F)(F)F)cn2)CC1 [Example 614 Isomer D, 5-(((R)-2-(3-Oxo-3-(4-(5-(trifluoromethyl)pyrimidin-2-yl)piperazin-1-yl)propoxy)-1-((S)-tetrahydrofuran-3-yl)ethyl)amino)-4-(trifluoromethyl)pyridazin-3(2H)-one] | < 100 |
| N#Cc1ccc(N2CCN(C(=O)C[C@H]3CC[C@@H]([C@H]4c5ccccc5CN4c4cn[nH]c(=O)c4C(F)(F)F)O3)CC2)nc1 (single isomer, unassigned) [Example 612 Isomer A] | < 100 |
| N#Cc1ccc(N2CCN(C(=O)c3cccc(OCC4c5ncccc5CN4c4cn[nH]c(=O)c4C(F)(F)F)c3)CC2)nc1 (stereo not shown) [Example 397, 6-(4-(3-((6-(6-Oxo-5-(trifluoromethyl)-1,6-dihydropyridazin-4-yl)-6,7-dihydro-5H-pyrrolo[3,4-b]pyridin-7-yl)methoxy)benzoyl)piperazin-1-yl)nicotinonitrile] | < 100 |
| C[C@@H](COCCC(=O)N1CC=C(c2ccc(C#N)cn2)CC1)Oc1cn[nH]c(=O)c1C(F)(F)F [Example 646, (S)-1′-(3-(2-((6-Oxo-5-(trifluoromethyl)-1,6-dihydropyridazin-4-yl)oxy)propoxy)propanoyl)-1′,2′,3′,6′-tetrahydro-[2,4′-bipyridine]-5-carbonitrile] | < 100 |
| O=c1[nH]ncc(N2Cc3cccc(Cl)c3C2)c1C(F)(F)F [Example 265, 5-(4-Chloroisoindolin-2-yl)-4-(trifluoromethyl)pyridazin-3(2H)-one] | < 100 |
| O=c1[nH]ncc(N2Cc3cc(F)c(OCC4CCCN4)cc3C2)c1C(F)(F)F (stereo not shown) [Example 48, 5-[5-fluoro-6-(pyrrolidin-2-ylmethoxy)-2,3-dihydro-1H-isoindol-2-yl]-4-(trifluoromethyl)-2,3-dihydropyridazin-3-one] | < 100 |
| O=C(C[C@H]1CC[C@@H]([C@@H]2CCCN2c2cn[nH]c(=O)c2C(F)(F)F)O1)N1CCN(c2ccc(Cl)cn2)CC1 [Example 148D, 5-[(2S)-2-[(2S,5R)-5-[2-[4-(5-chloropyridin-2-yl)piperazin-1-yl]-2-oxoethyl]oxolan-2-yl]pyrrolidin-1-yl]-4-(trifluoromethyl)-2,3-dihydropyridazin-3-one] | < 100 |
| O=C(c1cccc(OCC2c3ccccc3CN2c2cn[nH]c(=O)c2C(F)(F)F)c1)N1CCn2nccc2C1 (stereo not shown) [Example 404, 5-(1-((3-(4,5,6,7-Tetrahydropyrazolo[1,5-a]pyrazine-5-carbonyl)phenoxy)methyl)isoindolin-2-yl)-4-(trifluoromethyl)pyridazin-3(2H)-one] | 100 to 1000 |
| COc1cccc2c1C(C)N(c1cn[nH]c(=O)c1C(F)(F)F)C2 (stereo not shown) [Example 309, 5-(7-Methoxy-1-methylisoindolin-2-yl)-4-(trifluoromethyl)pyridazin-3(2H)-one] | 100 to 1000 |

| Compound | IC50 [nM] |
| --- | --- |
| O=C(c1cccc(OCC2c3ccccc3CN2c2cn[nH]c(=O)c2C(F)(F)F)c1)N1CCn2nncc2C1 (stereo not shown) [Example 399, 5-(1-((3-(4,5,6,7-Tetrahydro-[1,2,3]triazolo[1,5-a]pyrazine-5-carbonyl)phenoxy)methyl)isoindolin-2-yl)-4-(trifluoromethyl)pyridazin-3(2H)-one] | 100 to 1000 |
| O=c1[nH]ncc(N2Cc3ccc(OC4CCNCC4)cc3C2)c1C(F)(F)F [Example 150, 5-[5-(Piperidin-4-yloxy)-2,3-dihydro-1H-isoindol-2-yl]-4-(trifluoromethyl)-2,3-dihydropyridazin-3-one] | < 100 |
| O=c1[nH]ncc(N2Cc3cccc(NC4CCOCC4)c3C2)c1C(F)(F)F [Example 290, 5-(4-((Tetrahydro-2H-pyran-4-yl)amino)isoindolin-2-yl)-4-(trifluoromethyl)pyridazin-3(2H)-one] | 100 to 1000 |
| C[C@@H](COCCC(=O)N1CCN(c2ncc(Cl)s2)CC1)Nc1cn[nH]c(=O)c1C(F)(F)F [Example 721, (S)-5-((1-(3-(4-(5-Chlorothiazol-2-yl)piperazin-1-yl)-3-oxopropoxy)propan-2-yl)amino)-4-(trifluoromethyl)pyridazin-3(2H)-one] | < 100 |
| O=c1[nH]ncc(N2Cc3cccc(OC[C@H]4CCCO4)c3C2)c1C(F)(F)F [Example 223, (R)-5-(4-((Tetrahydrofuran-2-yl)methoxy)isoindolin-2-yl)-4-(trifluoromethyl)pyridazin-3(2H)-one] | < 100 |
| C[C@@H](COCCC(=O)N1CCN(c2ccc(C#N)cn2)CC1)Nc1cn[nH]c(=O)c1Cl [Example 597, 6-(4-[3-[(2S)-2-[(5-Chloro-6-oxo-1,6-dihydropyridazin-4-yl)amino]propoxy]propanoyl]piperazin-1-yl)pyridine-3-carbonitrile] | < 100 |
| CO[C@@H](C)[C@@H](COCCC(=O)N1CCN(c2ncc(C(F)(F)F)cn2)CC1)Nc1cn[nH]c(=O)c1C(F)(F)F [Example 698, 5-(((2R,3S)-3-Methoxy-1-(3-oxo-3-(4-(5-(trifluoromethyl)pyrimidin-2-yl)piperazin-1-yl)propoxy)butan-2-yl)amino)-4-(trifluoromethyl)pyridazin-3(2H)-one] | < 100 |
| O=c1[nH]ncc(N2Cc3cc(OCCO)cc(F)c3C2)c1C(F)(F)F [Example 323, 5-(4-Fluoro-6-(2-hydroxyethoxy)isoindolin-2-yl)-4-(trifluoromethyl)pyridazin-3(2H)-one] | < 100 |
| N#Cc1ccc(N2CCN(C(=O)CCOCCNc3cn[nH]c(=O)c3C(F)(F)F)CC2)nc1 [Example 500, 6-[4-[3-(2-[[6-Oxo-5-(trifluoromethyl)-1,6-dihydropyridazin-4-yl]amino]ethoxy)propanoyl]piperazin-1-yl]pyridine-3-carbonitrile] | < 100 |
| O=C(c1cncc(OC[C@@H]2c3ccccc3CN2c2cn[nH]c(=O)c2C(F)(F)F)c1)N1CCN(c2ccc(F)cn2)CC1 [Example 386, (5)-5-(1-(((5-(4-(5-Fluoropyridin-2-yl)piperazine-1-carbonyl)pyridin-3-yl)oxy)methyl)isoindolin-2-yl)-4-(trifluoromethyl)pyridazin-3(2H)-one] | < 100 |
| N#Cc1ccc(N2CCC3(CCN(C(=O)CCOC[C@@H]4CCCN4c4cn[nH]c(=O)c4C(F)(F)F)C3)C2)nc1 (stereo partly drawn) [Example 111, 6-[7-(3-[[(2S)-1-[6-oxo-5-(trifluoromethyl)-1,6-dihydropyridazin-4-yl]pyrrolidin-2-yl]methoxy]propanoyl)-2,7-diazaspiro[4.4]nonan-2-yl]pyridine-3-carbonitrile] | 100 to 1000 |
| O=c1[nH]ncc(N2Cc3ccccc3[C@@H]2CO)c1C(F)(F)F [Example 246, (R)-5-(1-(Hydroxymethyl)isoindolin-2-yl)-4-(trifluoromethyl)pyridazin-3(2H)-one] | ≥ 1000 |
| N#Cc1ccc(N2CCC3(CCN(C(=O)CCOC[C@@H]4CCCN4c4cn[nH]c(=O)c4C(F)(F)F)C3)CC2)nc1 [Example 103, 6-[2-(3-[[(2S)-1-[6-oxo-5-(trifluoromethyl)-1,6-dihydropyridazin-4-yl]pyrrolidin-2-yl]methoxy]propanoyl)-2,8-diazaspiro [4.5]decan-8-yl]pyridine-3-carbonitrile] | 100 to 1000 |
| N#Cc1ccc(N2CCN(C(=O)CCNC[C@H]3c4ccccc4CN3c3cn[nH]c(=O)c3C(F)(F)F)CC2)nc1 [Example 146B, 6-[4-[3-([[(1R)-2-[6-oxo-5-(trifluoromethyl)-1,6-dihydropyridazin-4-yl]-2,3-dihydro-1H-isoindo1-1-yl]methyl]amino)propanoyl]piperazin-1-yl]pyridine-3-carbonitrile] | < 100 |
| C[C@@H](COCCC(=O)N1CCN(c2ncc(Cl)cn2)CC1)Oc1cn[nH]c(=O)c1Cl (single isomer, unassigned) [Example 577 Isomer A] | < 100 |
